Earlier results in patent publication US11993576B2, “N-benzyl-N-arylsulfonamide derivative and preparation and use thereof” (Hangzhou Yirui Pharmaceutical Technology Co., Ltd, priority 2019, dated 2024).

What was measured:
[1] = tested on: rat model of autoimmune glomerular basal membrane nephritis; settings: intraperitoneal injection; cited from earlier work
EAE = settings: in vivo; cited from earlier work
[2] = tested on: Th2 TEM cells with highly expressed Kv1.3; settings: ovalbumin-induced asthma, rat; cited from earlier work

Compound | proteinuria and crescentic glomeruli [1] | inductive occurrence of EAE (EAE) | production of IFN-γ and IL-17 (EAE) | proliferation of Th2 TEM cells and production of cytokines [2]
O=c1ccc2c(OCCCCc3ccccc3)c3ccoc3cc2o1 [Psora-4] | can significantly decrease proteinuria and crescentic glomeruli |  |  | 
SHK-186 |  | can resist inductive occurrence of EAE | inhibit production of IFN-γ and IL-17 | can effectively inhibit proliferation of Th2 TEM cells with highly expressed Kv1.3 and production of cytokines
